Test results taken from US20190255086A1, “Compositions and Methods for Treating an Infection” (CMPD Licensing, LLC, priority 2015, published 2019).

What was measured:
Bacteroides fragilis = assay: Expected efficacy of anti-bacterial agents against various bacteria (Tables 5 and 6); conditions: Gram: anaer
Clostridium difficile = assay: as above; conditions: Gram: anaer
Clostridium perfringens = conditions: expected efficacy; Clostridium perfringens; Gram: anaer
Chlamydia pneumoniae = assay: Expected efficacy of anti-bacterial agents against various bacteria (Tables 5 and 6); conditions: Gram: n/a
Chlamydia psittaci = conditions: expected efficacy; Chlamydia psittaci; Gram: n/a
Chlamydia trachomatis = assay: Expected efficacy of anti-bacterial agents against various bacteria (Tables 5 and 6); conditions: Gram: n/a
Mycoplasma pneumoniae = assay: as above; conditions: Gram: n/a
Acinetobacter baumannii = assay: as above; conditions: Gram: neg
[1] = system: Acinetobacter calcoaceticus; assay: as above; conditions: Gram: neg
Acinetobacter lwoffii = assay: as above; conditions: Gram: neg
Bartonella bacilliformis = assay: as above; conditions: Gram: neg
Bordetella pertussis = assay: as above; conditions: Gram: neg
Brucella species = conditions: expected efficacy; Brucella species; Gram: neg
Campylobacter jejuni = assay: Expected efficacy of anti-bacterial agents against various bacteria (Tables 5 and 6); conditions: Gram: neg
Citrobacter diversus = assay: as above; conditions: Gram: neg
Citrobacter freundii = assay: as above; conditions: Gram: neg
Enterobacter aerogenes = assay: as above; conditions: Gram: neg
Enterobacter cloacae = assay: as above; conditions: Gram: neg
Enterobacter sakazakii = assay: as above; conditions: Gram: neg
Escherichia coli = assay: as above; conditions: Gram: neg
Francisella tularensis = conditions: expected efficacy; Francisella tularensis; Gram: neg
Haemophilus influenzae = assay: Expected efficacy of anti-bacterial agents against various bacteria (Tables 5 and 6); conditions: Gram: neg
[2] = system: Klebsiella (Calymmatobacterium) granulomatis; assay: as above; conditions: Gram: neg
Klebsiella oxytoca = assay: as above; conditions: Gram: neg
Klebsiella pneumoniae = assay: as above; conditions: Gram: neg
Legionella pneumophila = conditions: expected efficacy; Legionella pneumophila; Gram: neg
Moraxella catarrhalis = assay: Expected efficacy of anti-bacterial agents against various bacteria (Tables 5 and 6); conditions: Gram: neg
Morganella morganii = assay: as above; conditions: Gram: neg
Neisseria meningitidis = assay: as above; conditions: Gram: neg
Proteus mirabilis = assay: as above; conditions: Gram: neg
Proteus vulgaris = assay: as above; conditions: Gram: neg
Providencia rettgeri = assay: as above; conditions: Gram: neg
Providencia stuartii = assay: as above; conditions: Gram: neg
Pseudomonas aeruginosa = assay: as above; conditions: Gram: neg
Pseudomonas fluorescens = assay: as above; conditions: Gram: neg
Rickettsiae = conditions: expected efficacy; Rickettsiae; Gram: neg
Serratia marcescens = assay: Expected efficacy of anti-bacterial agents against various bacteria (Tables 5 and 6); conditions: Gram: neg
Vibrio cholerae = assay: as above; conditions: Gram: neg
Corynebacterium jeikeium = assay: as above; conditions: Gram: pos
Enterococcus faecalis = assay: as above; conditions: Gram: pos
Enterococcus faecium = assay: as above; conditions: Gram: pos
[3] = system: Methicillin resistant staph aureus (MRSA); assay: as above; conditions: Gram: pos
[4] = system: Staphylococcus aureus (MSSA); assay: as above; conditions: Gram: pos
[5] = system: Staphylococcus epidermidis; assay: as above; conditions: Gram: pos
Streptococcus agalactiae = assay: as above; conditions: Gram: pos
Streptococcus pneumoniae = assay: as above; conditions: Gram: pos
Streptococcus pyogenes = assay: as above; conditions: Gram: pos
[6] = system: Haemophilus parainfluenzae; assay: as above; conditions: Gram: neg
Neisseria gonorrhoeae = assay: as above; conditions: Gram: neg
Salmonella typhi = assay: as above; conditions: Gram: neg
Shigella boydii = assay: as above; conditions: Gram: neg
Shigella dysenteriae = assay: as above; conditions: Gram: neg
Shigella flexneri = assay: as above; conditions: Gram: neg
Shigella sonnei = assay: as above; conditions: Gram: neg
Yersinia pestis = conditions: expected efficacy; Yersinia pestis; Gram: neg
Candida species = assay: Expected efficacy of anti-fungal agents against various fungi (Table 4)
Haemophilus ducreyi = assay: Expected efficacy of anti-bacterial agents against various bacteria (Tables 5 and 6); conditions: Gram: neg
[7] = system: Corynebacterium urealyticum; assay: as above; conditions: Gram: pos
Diphtheroids = assay: as above; conditions: Gram: pos
Peptostreptococcus = assay: as above; conditions: Gram: pos
[8] = system: Viridans group streptococci; assay: as above; conditions: Gram: pos

CC[C@H]1OC(=O)[C@H](C)[C@@H](O[C@H]2C[C@@](C)(OC)[C@@H](O)[C@H](C)O2)[C@H](C)[C@@H](O[C@@H]2O[C@H](C)C[C@H](N(C)C)[C@H]2O)[C@](C)(O)C[C@@H](C)CN(C)[C@H](C)[C@@H](O)[C@]1(C)O [Azithromycin]
Efficacy of various antibiotic agents (Bacteroides fragilis): no
Efficacy of various antibiotic agents (Clostridium difficile): no
Efficacy of various antibiotic agents (Clostridium perfringens): no
Efficacy of various antibiotic agents (Chlamydia pneumoniae): yes
Efficacy of various antibiotic agents (Chlamydia psittaci): yes
Efficacy of various antibiotic agents (Chlamydia trachomatis): yes
Efficacy of various antibiotic agents (Mycoplasma pneumoniae): yes
Efficacy of various antibiotic agents (Acinetobacter baumannii): no
Efficacy of various antibiotic agents [1]: no
Efficacy of various antibiotic agents (Acinetobacter lwoffii): no
Efficacy of various antibiotic agents (Bartonella bacilliformis): yes
Efficacy of various antibiotic agents (Bordetella pertussis): yes
Efficacy of various antibiotic agents (Brucella species): no
Efficacy of various antibiotic agents (Campylobacter jejuni): yes
Efficacy of various antibiotic agents (Citrobacter diversus): no
Efficacy of various antibiotic agents (Citrobacter freundii): no
Efficacy of various antibiotic agents (Enterobacter aerogenes): no
Efficacy of various antibiotic agents (Enterobacter cloacae): no
Efficacy of various antibiotic agents (Enterobacter sakazakii): no
Efficacy of various antibiotic agents (Escherichia coli): no
Efficacy of various antibiotic agents (Francisella tularensis): no
Efficacy of various antibiotic agents (Haemophilus influenzae): yes
Efficacy of various antibiotic agents [2]: no
Efficacy of various antibiotic agents (Klebsiella oxytoca): no
Efficacy of various antibiotic agents (Klebsiella pneumoniae): no
Efficacy of various antibiotic agents (Legionella pneumophila): yes
Efficacy of various antibiotic agents (Moraxella catarrhalis): yes
Efficacy of various antibiotic agents (Morganella morganii): no
Efficacy of various antibiotic agents (Neisseria meningitidis): yes
Efficacy of various antibiotic agents (Proteus mirabilis): no
Efficacy of various antibiotic agents (Proteus vulgaris): no
Efficacy of various antibiotic agents (Providencia rettgeri): no
Efficacy of various antibiotic agents (Providencia stuartii): no
Efficacy of various antibiotic agents (Pseudomonas aeruginosa): no
Efficacy of various antibiotic agents (Pseudomonas fluorescens): no
Efficacy of various antibiotic agents (Rickettsiae): yes
Efficacy of various antibiotic agents (Serratia marcescens): no
Efficacy of various antibiotic agents (Vibrio cholerae): yes
Efficacy of various antibiotic agents (Corynebacterium jeikeium): no
Efficacy of various antibiotic agents (Enterococcus faecalis): no
Efficacy of various antibiotic agents (Enterococcus faecium): no
Efficacy of various antibiotic agents [3]: no
Efficacy of various antibiotic agents [4]: yes
Efficacy of various antibiotic agents [5]: yes
Efficacy of various antibiotic agents (Streptococcus agalactiae): yes
Efficacy of various antibiotic agents (Streptococcus pneumoniae): yes
Efficacy of various antibiotic agents (Streptococcus pyogenes): yes

O=C(O)c1cn(C2CC2)c2cc(N3CCNCC3)c(F)cc2c1=O [Ciprofloxacin]
Efficacy of various antibiotic agents (Bacteroides fragilis): no
Efficacy of various antibiotic agents (Chlamydia pneumoniae): yes
Efficacy of various antibiotic agents (Bartonella bacilliformis): yes
Efficacy of various antibiotic agents (Campylobacter jejuni): yes
Efficacy of various antibiotic agents (Citrobacter diversus): yes
Efficacy of various antibiotic agents (Citrobacter freundii): yes
Efficacy of various antibiotic agents (Enterobacter aerogenes): yes
Efficacy of various antibiotic agents (Escherichia coli): yes
Efficacy of various antibiotic agents (Francisella tularensis): yes
Efficacy of various antibiotic agents (Haemophilus influenzae): yes
Efficacy of various antibiotic agents [6]: yes
Efficacy of various antibiotic agents (Klebsiella oxytoca): yes
Efficacy of various antibiotic agents (Klebsiella pneumoniae): yes
Efficacy of various antibiotic agents (Legionella pneumophila): yes
Efficacy of various antibiotic agents (Moraxella catarrhalis): yes
Efficacy of various antibiotic agents (Morganella morganii): yes
Efficacy of various antibiotic agents (Neisseria gonorrhoeae): yes
Efficacy of various antibiotic agents (Neisseria meningitidis): yes
Efficacy of various antibiotic agents (Proteus mirabilis): yes
Efficacy of various antibiotic agents (Proteus vulgaris): yes
Efficacy of various antibiotic agents (Providencia rettgeri): yes
Efficacy of various antibiotic agents (Providencia stuartii): yes
Efficacy of various antibiotic agents (Pseudomonas aeruginosa): yes
Efficacy of various antibiotic agents (Pseudomonas fluorescens): yes
Efficacy of various antibiotic agents (Rickettsiae): yes
Efficacy of various antibiotic agents (Salmonella typhi): yes
Efficacy of various antibiotic agents (Serratia marcescens): yes
Efficacy of various antibiotic agents (Shigella boydii): yes
Efficacy of various antibiotic agents (Shigella dysenteriae): yes
Efficacy of various antibiotic agents (Shigella flexneri): yes
Efficacy of various antibiotic agents (Shigella sonnei): yes
Efficacy of various antibiotic agents (Vibrio cholerae): yes
Efficacy of various antibiotic agents (Yersinia pestis): yes
Efficacy of various antibiotic agents (Corynebacterium jeikeium): no
Efficacy of various antibiotic agents (Enterococcus faecium): no
Efficacy of various antibiotic agents [3]: no
Efficacy of various antibiotic agents [5]: yes

C[C@@H]1[C@H](O)[C@@H](C)/C=C/C=C/CC/C=C/C=C/C=C/C=C/C(O[C@H]2O[C@H](C)[C@@H](O)[C@H](N)[C@@H]2O)CC2O[C@](O)(CC(O)C(O)CCC(O)CC(O)CC(O)CC(=O)O[C@H]1C)CC(O)C2C(=O)O (stereo partly shown) [Nystatin]
Efficacy of various antifungal agents (Candida species): yes

NC[C@H]1O[C@H](O[C@H]2[C@H](O)[C@@H](O[C@H]3O[C@H](CO)[C@@H](O)[C@H](N)[C@H]3O)[C@H](N)C[C@@H]2N)[C@H](N)C[C@@H]1O [Tobramycin]
Efficacy of various antibiotic agents (Bacteroides fragilis): no
Efficacy of various antibiotic agents (Clostridium difficile): no
Efficacy of various antibiotic agents (Clostridium perfringens): no
Efficacy of various antibiotic agents (Chlamydia pneumoniae): no
Efficacy of various antibiotic agents (Chlamydia psittaci): no
Efficacy of various antibiotic agents (Chlamydia trachomatis): no
Efficacy of various antibiotic agents (Mycoplasma pneumoniae): no
Efficacy of various antibiotic agents (Acinetobacter baumannii): no
Efficacy of various antibiotic agents [1]: no
Efficacy of various antibiotic agents (Acinetobacter lwoffii): no
Efficacy of various antibiotic agents (Bordetella pertussis): no
Efficacy of various antibiotic agents (Campylobacter jejuni): yes
Efficacy of various antibiotic agents (Citrobacter diversus): yes
Efficacy of various antibiotic agents (Citrobacter freundii): yes
Efficacy of various antibiotic agents (Enterobacter aerogenes): yes
Efficacy of various antibiotic agents (Enterobacter cloacae): yes
Efficacy of various antibiotic agents (Enterobacter sakazakii): yes
Efficacy of various antibiotic agents (Escherichia coli): yes
Efficacy of various antibiotic agents (Haemophilus ducreyi): yes
Efficacy of various antibiotic agents (Haemophilus influenzae): yes
Efficacy of various antibiotic agents [2]: yes
Efficacy of various antibiotic agents (Klebsiella oxytoca): yes
Efficacy of various antibiotic agents (Klebsiella pneumoniae): yes
Efficacy of various antibiotic agents (Legionella pneumophila): no
Efficacy of various antibiotic agents (Moraxella catarrhalis): yes
Efficacy of various antibiotic agents (Neisseria gonorrhoeae): no
Efficacy of various antibiotic agents (Neisseria meningitidis): no
Efficacy of various antibiotic agents (Proteus mirabilis): yes
Efficacy of various antibiotic agents (Proteus vulgaris): yes
Efficacy of various antibiotic agents (Pseudomonas aeruginosa): yes
Efficacy of various antibiotic agents (Pseudomonas fluorescens): yes
Efficacy of various antibiotic agents (Serratia marcescens): yes
Efficacy of various antibiotic agents (Shigella boydii): yes
Efficacy of various antibiotic agents (Shigella dysenteriae): yes
Efficacy of various antibiotic agents (Shigella flexneri): yes
Efficacy of various antibiotic agents (Shigella sonnei): yes
Efficacy of various antibiotic agents (Vibrio cholerae): no
Efficacy of various antibiotic agents (Yersinia pestis): yes
Efficacy of various antibiotic agents (Corynebacterium jeikeium): no
Efficacy of various antibiotic agents [7]: no
Efficacy of various antibiotic agents (Diphtheroids): no
Efficacy of various antibiotic agents (Enterococcus faecalis): no
Efficacy of various antibiotic agents (Enterococcus faecium): no
Efficacy of various antibiotic agents [3]: no
Efficacy of various antibiotic agents (Peptostreptococcus): no
Efficacy of various antibiotic agents [4]: no
Efficacy of various antibiotic agents [5]: no
Efficacy of various antibiotic agents (Streptococcus agalactiae): no
Efficacy of various antibiotic agents (Streptococcus pneumoniae): no
Efficacy of various antibiotic agents (Streptococcus pyogenes): no
Efficacy of various antibiotic agents [8]: no
